Laboratory results taken from PubChem BioAssay (NCI).
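Growth conditions: 96-well plates. Treatment: test compound, 48 hours, 5 concentrations. Analysis: linear interpolation between bracketing concentrations; unreached endpoints set to highest concentration. GI50 marks 50% less growth. TGI: concentration producing complete growth inhibition.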

What was measured:
Assay in all cases: NCI tumour cell line growth inhibition, 48 h
NCI/ADR-RES ovarian = system: NCI/ADR-RES ovarian
MOLT-4 leukemia = system: MOLT-4 leukemia
IGROV1 ovarian = system: IGROV1 ovarian
HS 578T breast = system: HS 578T breast
PC-3 prostate = system: PC-3 prostate
HOP-92 NSCLC = system: HOP-92 NSCLC
OVCAR-4 ovarian = system: OVCAR-4 ovarian
MCF7 breast = system: MCF7 breast
U251 CNS = system: U251 CNS
SF-295 CNS = system: SF-295 CNS
NCI-H226 lung = system: NCI-H226 lung
EKVX NSCLC = system: EKVX NSCLC
MDA-MB-435 = system: MDA-MB-435
OVCAR-3 ovarian = system: OVCAR-3 ovarian
NCI-H23 lung = system: NCI-H23 lung
CAKI-1 renal = system: CAKI-1 renal
SNB-75 CNS = system: SNB-75 CNS
SN12C renal = system: SN12C renal
SF-268 CNS = system: SF-268 CNS
HT29 colon = system: HT29 colon
M14 melanoma = system: M14 melanoma
SK-MEL-2 melanoma = system: SK-MEL-2 melanoma
A549 NSCLC = system: A549 NSCLC
HCT-116 colon = system: HCT-116 colon
T-47D breast = system: T-47D breast
786-0 renal = system: 786-0 renal
UO-31 renal = system: UO-31 renal
UACC-257 melanoma = system: UACC-257 melanoma
NCI-H522 lung = system: NCI-H522 lung
SNB-19 CNS = system: SNB-19 CNS
K-562 leukemia = system: K-562 leukemia
CCRF-CEM leukemia = system: CCRF-CEM leukemia
RPMI-8226 leukemia = system: RPMI-8226 leukemia
UACC-62 melanoma = system: UACC-62 melanoma
COLO 205 colon = system: COLO 205 colon
OVCAR-8 ovarian = system: OVCAR-8 ovarian
SF-539 CNS = system: SF-539 CNS
BT-549 breast = system: BT-549 breast
LOX IMVI melanoma = system: LOX IMVI melanoma
SK-OV-3 ovarian = system: SK-OV-3 ovarian
RXF 393 renal = system: RXF 393 renal
NCI-H460 lung = system: NCI-H460 lung
MDA-MB-231 breast = system: MDA-MB-231 breast
HCC-2998 colon = system: HCC-2998 colon
SK-MEL-5 melanoma = system: SK-MEL-5 melanoma
SW-620 colon = system: SW-620 colon
A498 renal = system: A498 renal
HCT-15 colon = system: HCT-15 colon
OVCAR-5 ovarian = system: OVCAR-5 ovarian
DU-145 prostate = system: DU-145 prostate
HOP-62 NSCLC = system: HOP-62 NSCLC
SK-MEL-28 melanoma = system: SK-MEL-28 melanoma

N#Cc1c(N)nc(N2CCOCC2)c(C#N)c1-c1ccc(Cl)cc1Cl
GI50 (NCI/ADR-RES ovarian): 19.9 µM | TGI (NCI/ADR-RES ovarian): 48.1 µM | GI50 (MOLT-4 leukemia): 24.2 µM | TGI (MOLT-4 leukemia): > 100 µM | GI50 (IGROV1 ovarian): 6.64 µM | TGI (IGROV1 ovarian): 23.6 µM | GI50 (HS 578T breast): 15.8 µM | TGI (HS 578T breast): 45.9 µM | GI50 (PC-3 prostate): 10.9 µM | TGI (PC-3 prostate): 35.2 µM | GI50 (HOP-92 NSCLC): 3.35 µM | TGI (HOP-92 NSCLC): 26.3 µM | GI50 (OVCAR-4 ovarian): 21.8 µM | TGI (OVCAR-4 ovarian): 78.2 µM | GI50 (MCF7 breast): 8.8 µM | TGI (MCF7 breast): 36.2 µM | GI50 (U251 CNS): 17.4 µM | TGI (U251 CNS): 42.4 µM | GI50 (SF-295 CNS): 19 µM | TGI (SF-295 CNS): 51.8 µM | GI50 (NCI-H226 lung): 26.9 µM | TGI (NCI-H226 lung): > 100 µM | GI50 (EKVX NSCLC): 20.1 µM | TGI (EKVX NSCLC): 64.3 µM | GI50 (MDA-MB-435): 5.75 µM | TGI (MDA-MB-435): 21.9 µM | GI50 (OVCAR-3 ovarian): 13.7 µM | TGI (OVCAR-3 ovarian): 41.3 µM | GI50 (NCI-H23 lung): 19.7 µM | TGI (NCI-H23 lung): 48.4 µM | GI50 (CAKI-1 renal): 18.6 µM | TGI (CAKI-1 renal): 46.8 µM | GI50 (SNB-75 CNS): 6.31 µM | TGI (SNB-75 CNS): 30.4 µM | GI50 (SN12C renal): 16.1 µM | TGI (SN12C renal): 43.3 µM | GI50 (SF-268 CNS): 14.2 µM | TGI (SF-268 CNS): 35.6 µM | GI50 (HT29 colon): 16.4 µM | TGI (HT29 colon): 39.3 µM | GI50 (M14 melanoma): 18.3 µM | TGI (M14 melanoma): 42 µM | GI50 (SK-MEL-2 melanoma): 13.6 µM | TGI (SK-MEL-2 melanoma): 32.4 µM | GI50 (A549 NSCLC): 20.2 µM | TGI (A549 NSCLC): 54.9 µM | GI50 (HCT-116 colon): 22.1 µM | TGI (HCT-116 colon): 54.7 µM | GI50 (T-47D breast): 12.9 µM | TGI (T-47D breast): 81.4 µM | GI50 (786-0 renal): 19.5 µM | TGI (786-0 renal): 44.8 µM | GI50 (UO-31 renal): 3.26 µM | TGI (UO-31 renal): 15.8 µM | GI50 (UACC-257 melanoma): 18 µM | TGI (UACC-257 melanoma): 62.4 µM | GI50 (NCI-H522 lung): 4.77 µM | TGI (NCI-H522 lung): 18.4 µM | GI50 (SNB-19 CNS): 15.9 µM | TGI (SNB-19 CNS): 60.9 µM | GI50 (K-562 leukemia): 23.9 µM | TGI (K-562 leukemia): 99.1 µM | GI50 (CCRF-CEM leukemia): 23.2 µM | TGI (CCRF-CEM leukemia): 75 µM | GI50 (RPMI-8226 leukemia): 19.5 µM | TGI (RPMI-8226 leukemia): 56.9 µM | GI50 (UACC-62 melanoma): 10.8 µM | TGI (UACC-62 melanoma): 28.8 µM | GI50 (COLO 205 colon): 16.6 µM | TGI (COLO 205 colon): 40.6 µM | GI50 (OVCAR-8 ovarian): 18.2 µM | TGI (OVCAR-8 ovarian): 54.5 µM | GI50 (SF-539 CNS): 17.9 µM | TGI (SF-539 CNS): 42.1 µM | GI50 (BT-549 breast): 17.4 µM | TGI (BT-549 breast): 55.8 µM | GI50 (LOX IMVI melanoma): 16.7 µM | TGI (LOX IMVI melanoma): 34.2 µM | GI50 (SK-OV-3 ovarian): 22.2 µM | TGI (SK-OV-3 ovarian): 91.1 µM | GI50 (RXF 393 renal): 5.67 µM | TGI (RXF 393 renal): 38.4 µM | GI50 (NCI-H460 lung): 9.38 µM | TGI (NCI-H460 lung): 25.3 µM | GI50 (MDA-MB-231 breast): 15.9 µM | TGI (MDA-MB-231 breast): 43.7 µM | GI50 (HCC-2998 colon): 13.3 µM | TGI (HCC-2998 colon): 28.2 µM | GI50 (SK-MEL-5 melanoma): 14.7 µM | TGI (SK-MEL-5 melanoma): 29.2 µM | GI50 (SW-620 colon): 27.3 µM | TGI (SW-620 colon): > 100 µM | GI50 (A498 renal): 2680 nM | TGI (A498 renal): 11.1 µM | GI50 (HCT-15 colon): 15.5 µM | TGI (HCT-15 colon): 56.4 µM | GI50 (OVCAR-5 ovarian): 23.1 µM | TGI (OVCAR-5 ovarian): 71.2 µM | GI50 (DU-145 prostate): 24.6 µM | TGI (DU-145 prostate): 81 µM | GI50 (HOP-62 NSCLC): 28 µM | TGI (HOP-62 NSCLC): 91.6 µM | GI50 (SK-MEL-28 melanoma): 18.4 µM | TGI (SK-MEL-28 melanoma): 53.1 µM
